Experiments:
[1] = system: mouse bone marrow-derived hematopoietic stem cells; test: Osteoclast differentiation inhibition test (M-CSF/RANKL induction, TRAP staining) from hematopoietic stem cells; format: cell-based; conditions: for number of osteoclasts (relative value): 8 days culture, ratio of TRAP-stained area to sample-free group (Comparative Example = 100%); for Osteoclast differentiation (significance vs Comparative Example): Tukey's test, P not more than 0.1%
Experimental: (§1) In the present Examples, statistical analysis was carried out using commercially available software (StatMate3, ATMS). Except for Example 3 and Comparative Example 3, Tukey's test was used for comparison in terms of the action and effect. In all tests, a significant difference was assumed at a P value of not more than 0.1%. In Example 3 and Comparative Example 3, Dunnett's test was used for comparison in terms of the action and effect. A significant difference was assumed at a P-value of not more than 1%.
Mouse femurs and tibias were removed, and a portion of about 2 mm was removed from each bone end by cutting. The long bones were placed in a 0.2-mL microtube, and centrifuged at 2000×g, followed by collecting bone marrow fluid. After suspending the bone marrow fluid in 4 ml of α-MEM medium (#. 11900-016, Gibco) supplemented with 10% FBS (JBS-011115), the resulting suspension was plated on a 6-cm dish. After incubating the plate at 37° C. under 5% CO2 for 24 hours, the medium was collected. The floating cells in the medium were isolated as hematopoietic stem cells.
The isolated mouse bone marrow-derived hematopoietic stem cells were plated on a 96-well plate at 4.0×10^4 cells/well. At the same time as the plating, 30 ng/ML M-CSF (macrophage-colony stimulating factor, R&D Systems) and 50 ng/mL RANKL (receptor activator of nuclear factor κ-B ligand, PeproTech Inc.) as inducers of differentiation into osteoclasts were added to all wells. Together with the differentiation inducers, urolithin A (1, 10, or 25 μM) was added. Culture was carried out by leaving the plate to stand in an incubator at 37° C. under 5% CO2 for 8 days. The medium in each well was removed, and the cells were fixed by being left to stand in […] Mildform for 10 minutes, followed by three times of washing with pure water. Thereafter, 50 μL of TRAP staining solution (SIGMA) was added to each well, and the plate was incubated in a shaded state for 1 hour at 37° C. The TRAP staining solution in each well was discarded, and the well was washed with pure water, followed by adding 50 μL of Mayer's hematoxylin solution thereto. The plated was left to stand for 2 minutes to perform nuclear staining. The plate was washed 10 times with pure water, and then dried for one or more days. The total number of multinucleated osteoclasts having three or more nuclei present on each well was counted. The stained image was scanned using a scanner (EPSON, GT-X970, 800 pixels/inch), and the stained area was measured using image analysis software Image J.
The same operation as in Example 1 was carried out except that urolithin A was not added.
The ratio of the stained area in each sample-addition group (Example 1) to the stained area in the sample-free group (Comparative Example 1) was calculated to determine the number of osteoclasts (relative value). […] The conditions marked with “*” in Table 2 and FIG. 1 are the conditions under which the significant differences were found compared to Comparative Example 1.
The same operation as in Example 1 was carried out except that urolithin B was used instead of urolithin A, and that urolithin B was added at 25 or 50 μM.
The same operation as in Example 1 was carried out except that urolithin B was not added.
The ratio of the stained area in each sample-addition group (Example 2) to the stained area in the sample-free group (Comparative Example 2) was calculated to determine the number of osteoclasts (relative value). […] The condition marked with “*” in Table 3 and FIG. 2 is the condition under which the significant difference was found compared to Comparative Example 2.

[2] = system: macrophages prepared by differentiation from the isolated mouse bone marrow-derived hematopoietic stem cells; test: Osteoclast differentiation inhibition test (M-CSF/RANKL induction, TRAP staining) from macrophages; format: cell-based; conditions: 10 μM; 3 days culture; ratio of TRAP-stained area to sample-free group (Comparative Example 3 = 100%)
Experimental: as §1
Mouse femurs and tibias were removed, and a portion of about 2 mm was removed from each bone end by cutting. The long bones were placed in a 0.2-mL microtube, and centrifuged at 2000×g, followed by collecting bone marrow fluid. […]
The macrophages prepared by differentiation from the isolated mouse bone marrow-derived hematopoietic stem cells were plated on a 96-well plate at 4.0×10^4 cells/well. […] The total number of multinucleated osteoclasts having three or more nuclei present on each well was counted. The stained image was scanned using a scanner (EPSON, GT-X970, 800 pixels/inch), and the stained area was measured using image analysis software Image J. […]
The ratio of the stained area in each sample-addition group (Example 3) to the stained area in the sample-free group (Comparative Example 3) was calculated to determine the number of osteoclasts (relative value). […]

SMILES | number of osteoclasts (relative value) ([1]; 1 μM) | number of osteoclasts (relative value) ([1]; 10 μM) | Osteoclast differentiation (significance vs Comparative Example) ([1]; 10 μM) | number of osteoclasts (relative value) ([1]; 25 μM) | Osteoclast differentiation (significance vs Comparative Example) ([1]; 25 μM) | number of osteoclasts (relative value) [2] | number of osteoclasts (relative value) ([1]; 50 μM)
O=c1oc2cc(O)ccc2c2ccc(O)cc12 [Urolithin A] | 88% ± 9% | 49% ± 6% (*) | significantly inhibited | 26% ± 4% (*) | significantly inhibited | 50% ± 5% (*) | –
O=c1oc2cc(O)ccc2c2ccccc12 [Urolithin B] | – | – | – | 87% ± 13% | – | – | 40% ± 5% (*)

Reference: patent publication US20250360101A1, “OSTEOCLAST DIFFERENTIATION INHIBITOR CONTAINING UROLITHIN” (DAICEL CORPORATION, priority 2020, published 2025)
